Data as given in the Deep4Chem optical property database.
Each block holds one compound with its values, some of them ahead of it.

Test: solvent given as SMILES

SMILES: CCCCCCCCN1c2ccc(C#Cc3cc(C(F)(F)F)cc(C(F)(F)F)c3)cc2Sc2cc(C=O)ccc21
absorption maximum (in C1CCOC1): 382 nm
absorption maximum (in CC#N): 386 nm
absorption maximum (in CCCCCC): 372 nm
absorption maximum (in CO): 366 nm
absorption maximum (in CS(C)=O): 396 nm
absorption maximum (in Cc1ccccc1): 381.01 nm
absorption maximum (in ClC(Cl)Cl): 386 nm

SMILES: Cc1cc(=O)oc2cc3c4ccccc4c4ccccc4c3cc12
absorption maximum (in C1CCOC1): 378 nm
absorption maximum (in CC#N): 375 nm
absorption maximum (in CO): 377 nm
absorption maximum (in CS(C)=O): 378 nm
absorption maximum (in Cc1ccccc1): 381 nm
absorption maximum (in ClC(Cl)Cl): 362 nm

SMILES: N#Cc1nc(N(Cc2ccccc2Cl)Cc2ccccc2Cl)c(C#N)nc1N(Cc1ccccc1Cl)Cc1ccccc1Cl
absorption maximum (in ClC(Cl)Cl): 485 nm

SMILES: Cc1ccc(-c2nc3c([nH]2)C2=CC(=O)S[C@]2(C)[C@@]2(C)SC(=O)C=C32)cc1
absorption maximum (in CC#N): 455 nm

SMILES: CCn1c2ccccc2c2cc(C#Cc3cc(C#Cc4ccc5c(c4)c4ccccc4n5CC)ncn3)ccc21
absorption maximum (in C1CCOC1): 382 nm
absorption maximum (in CCOC(C)=O): 379 nm
absorption maximum (in CN(C)C=O): 386 nm
absorption maximum (in Cc1ccccc1): 383 nm
absorption maximum (in ClCCl): 386 nm

SMILES: CCN(CC)c1cc(F)c(C(=O)c2cc(F)c(F)cc2F)cc1F
absorption maximum (in CCO): 361 nm

SMILES: COc1ccc(C2=[N+]3C(=Nc4c(-c5ccccc5)c(Br)c(-c5ccc(OC)cc5)n4[B-]3(F)F)C(c3ccccc3)=C2Br)cc1
absorption maximum (in ClC(Cl)Cl): 679 nm
absorption maximum (in ClCCl): 679 nm

SMILES: O=C1/C(=C\c2ccc3oc4ccccc4c3c2)S(=O)(=O)c2ccccc21
absorption maximum (in C1CCOC1): 368 nm
absorption maximum (in C1COCCO1): 369 nm
absorption maximum (in CC#N): 365 nm
absorption maximum (in CC(C)=O): 365 nm
absorption maximum (in CCOC(C)=O): 366 nm
absorption maximum (in CN(C)C=O): 367 nm
absorption maximum (in CO): 367 nm
absorption maximum (in CS(C)=O): 369 nm
absorption maximum (in Cc1ccccc1): 373 nm
absorption maximum (in ClC(Cl)Cl): 378 nm
absorption maximum (in ClCCl): 372 nm

SMILES: COc1ccc(N(c2ccc(OC)cc2)c2cc3ccc4cc(B(c5c(C)cc(C)cc5C)c5c(C)cc(C)cc5C)cc5ccc(c2)c3c45)cc1
absorption maximum (in C1CCOC1): 399 nm
absorption maximum (in CC(C)=O): 395 nm
absorption maximum (in CCCCCC): 398 nm
absorption maximum (in Cc1ccccc1): 402 nm
absorption maximum (in ClC(Cl)Cl): 399 nm
absorption maximum (in ClCCl): 397 nm

SMILES: CCN(CC)c1ccc(/C=N/c2cc3nc4ccccc4nc3cc2/N=C/c2ccc(N(CC)CC)cc2O)c(O)c1
absorption maximum (in CC#N): 451 nm
absorption maximum (in CN(C)C=O): 488 nm
absorption maximum (in ClCCl): 476 nm

SMILES: CCCCN(CCCC)c1ccc2c(c1)C#CC#Cc1cc(N(CCCC)CCCC)ccc1C#Cc1cc(c3cc1C#Cc1ccc(C(F)(F)F)cc1C#CC#Cc1cc(C(F)(F)F)ccc1C#C3)C#C2
absorption maximum (in ClCCl): 466 nm

SMILES: Fc1c(F)c(-n2c3ccccc3c3ccccc32)c(F)c(F)c1/C=C/C(=C(c1ccccc1)c1ccccc1)c1ccccc1
absorption maximum (in Cc1ccccc1): 360 nm

SMILES: C/N=N/C
absorption maximum (in CCO): 340 nm

SMILES: O=C1CC(=O)Nc2cc(Br)ccc2N1
absorption maximum (in CS(C)=O): 299 nm

SMILES: COc1ccc(-c2c3nc(cc4ccc([nH]4)c(-c4ccc(OC)c(OCCCC(=O)O)c4)c4nc(cc5ccc2[nH]5)CC4)CC3)cc1OCCCC(=O)O
absorption maximum (in CS(C)=O): 736 nm

SMILES: C(S/C=C/c1ccc(-c2ccc(/C=C/SC=C3CCCCC3)cc2)cc1)=C1CCCCC1
absorption maximum (in ClCCl): 351 nm

SMILES: CCOC(=O)CN1C(=O)C2=C(c3ccc(N4CCCCC4)cc3)N(CC(=O)OCC)C(=O)C2=C1c1ccc(C#N)cc1
absorption maximum (in CC#N): 524 nm
absorption maximum (in CS(C)=O): 541 nm
absorption maximum (in Cc1ccccc1): 527 nm

SMILES: c1ccc2c(c1)Oc1ccccc1C21c2cc(-c3ccc4ccc5cccc6ccc3c4c56)ccc2-c2ccc(-c3ccc4ccc5cccc6ccc3c4c56)cc21
absorption maximum (in ClC(Cl)Cl): 364 nm

SMILES: CCCCCCc1ccc2c3c(ccc2c1)O[B-](c1ccccc1)(c1ccccc1)[N+](c1ccc([N+]2=Cc4c(ccc5cc(CCCCCC)ccc45)O[B-]2(c2ccccc2)c2ccccc2)cc1)=C3
absorption maximum (in C1CCOC1): 455 nm
absorption maximum (in CC#N): 452 nm
absorption maximum (in Cc1ccccc1): 462 nm
absorption maximum (in ClCCl): 459 nm

Next, values leading:

absorption maximum (in C1COCCO1): 331 nm
absorption maximum (in CC#N): 330 nm
absorption maximum (in CO): 335 nm
absorption maximum (in ClCCl): 328 nm
absorption maximum (in O): 325 nm
SMILES: COC(=O)c1nc2cnc(N)nc2n1Cc1ccccc1

absorption maximum (in CC#N): 428.3 nm
absorption maximum (in CCO): 426.3 nm
absorption maximum (in CO): 432.1 nm
absorption maximum (in CS(C)=O): 434.3 nm
SMILES: Cn1c2ccccc2[c+](-c2ccccc2)c2cc([N+](=O)[O-])ccc21

absorption maximum (in CO): 308 nm
SMILES: N#Cc1cccc(-c2nc(-c3ccccc3)c(-c3ccccc3)[nH]2)c1

absorption maximum (in CC1CCCO1): 314 nm
SMILES: c1ccc2c(c1)-c1ccccc1C21c2ccccc2-c2ncccc21

absorption maximum (in C1CCCCC1): 294 nm
SMILES: C[Si](C)(C)c1cccc2ccccc12

absorption maximum (in ClCCl): 355 nm
SMILES: COc1ccc(/C=C/c2ncc(-c3ccccc3)o2)cc1OC

absorption maximum (in ClCCl): 445 nm
SMILES: [O-][n+]1c(-c2ccccc2)cc(N2CCOCC2)nc1/C=C/c1ccccc1

absorption maximum (in C1CCCCC1): 352 nm
SMILES: CB1C=Cc2ccc3ccccc3c2N1

absorption maximum (in O): 487 nm
SMILES: CC[n+]1nc2cc3c(cc2c2cc(C)ccc21)N(C)CCC3

absorption maximum (in CC#N): 388 nm
absorption maximum (in CO): 393 nm
absorption maximum (in ClCCl): 391 nm
SMILES: O=C1c2ccccc2-c2c(-c3cccc(Cl)c3O)[nH]c(=O)n21
